In US10696693B2, “Fused imidazole derivatives as TGF-beta inhibitors” (Rigel Pharmaceuticals, Inc., priority 2014, dated 2020):
Where two headings read alike, the source gives them in different places.

Legend:
GDF8 = assay: AlphaScreen SureFire p-SMAD3 (Ser423/425) assay, GDF8-stimulated cells; type: cell-based; details: Mus musculus
Method in brief: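 A SureFire AlphaScreen assay measured phosphorylation of endogenous SMAD-3 at Ser423/425 in cell lysates. Cells were treated with three-fold serially diluted compounds in DMSO for about 10 minutes, then stimulated with GDF8. After medium removal, cells were lysed in 1× Lysis Buffer (about 25 μL) with gentle shaking for 5-10 minutes.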

TGF-β = assay: AlphaScreen SureFire p-SMAD3 (Ser423/425) assay, TGF-β-stimulated cells; type: cell-based; details: Mus musculus
Method in brief: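 The p-SMAD-3 (Ser423/425) SureFire assay measured phosphorylation of endogenous SMAD-3 in cell lysates. Cells were plated overnight in collagen-coated plates, exposed to three-fold serially diluted compounds for about 10 minutes, then stimulated with TGFβ. Lysates (5 μL) received acceptor bead mix for 2 hours, then donor beads for 1½ hours before AlphaScreen reading.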

[1] = MPC-11, read-out: GDF8: inhibition of GDF8 signaling, GDF pSMAD (MPC11), p-SMAD3 (Ser423/425) AlphaScreen in cell lysate, GDF8 stimulation
[2] = MPC-11, read-out: TGF-β: inhibition of TGF-β signaling, TGF-β pSMAD (MPC-11), p-SMAD3 (Ser423/425) AlphaScreen in cell lysate, TGF-β stimulation
[3] = MPC-11, p-SMAD3 (Ser423/425) AlphaScreen in cell lysate, MPC11, GDF8 stimulation, read-out: GDF8: inhibition of GDF8 signaling, GDF pSMAD (MPC11)
[4] = p-SMAD3 (Ser423/425) AlphaScreen in cell lysate, MPC-11, TGF-β stimulation, read-out: TGF-β: inhibition of TGF-β signaling, TGF-β pSMAD (MPC-11)

Structure (SMILES) | IC50 (GDF8; [1]) [nM] | IC50 (TGF-β; [2]) [nM] | IC50 (GDF8; [3]) [nM] | IC50 (TGF-β; [4]) [nM]
OCC1CCC2(CC1)Cc1nc(-c3ccc(F)cc3)c(-c3ccc4ncnn4c3)n1C2 (stereo not shown) [Compound 75, (3′-([1,2,4]triazolo[1,5-a]pyridin-6-yl)-2′-(4-fluorophenyl)-5′H,7′H-spiro[cyclohexane-1,6′-pyrrolo[1,2-a]imidazol]-4-yl)methanol] | > 1000 | > 1000 | – | –
O=C(O)C1CCC2(CC1)Cc1nc(-c3ccc(F)cc3)c(-c3ccc4ncnn4c3)n1C2 (stereo not shown) [Compound 76, 3′-([1,2,4]triazolo[1,5-a]pyridin-6-yl)-2′-(4-fluorophenyl)-5′H,7′H-spiro[cyclohexane-1,6′-pyrrolo[1,2-a]imidazole]-4-carboxylic acid] | > 1000 | > 1000 | – | –
CCOC(=O)C1CCC2(CC1)Cc1nc(-c3ccc(F)cc3)c(-c3ccc4ncnn4c3)n1C2 (stereo not shown) [Compound 77, ethyl 3′-([1,2,4]triazolo[1,5-a]pyridin-6-yl)-2′-(4-fluorophenyl)-5′H,7′H-spiro[cyclohexane-1,6′-pyrrolo[1,2-a]imidazole]-4-carboxylate] | > 1000 | > 1000 | – | –
CNC(=O)C1CCC2(CC1)Cc1nc(-c3ccc(F)cc3)c(-c3ccc4ncnn4c3)n1C2 (stereo not shown) [Compound 78, 3′-([1,2,4]triazolo[1,5-a]pyridin-6-yl)-2′-(4-fluorophenyl)-N-methyl-5′H,7′H-spiro[cyclohexane-1,6′-pyrrolo[1,2-a]imidazole]-4-carboxamide] | – | – | > 1000 | > 1000
CN(C)C(=O)C1CCC2(CC1)Cc1nc(-c3ccc(F)cc3)c(-c3ccc4ncnn4c3)n1C2 (stereo not shown) [Compound 79, 3′-([1,2,4]triazolo[1,5-a]pyridin-6-yl)-2′-(4-fluorophenyl)-N,N-dimethyl-5′H,7′H-spiro[cyclohexane-1,6′-pyrrolo[1,2-a]imidazole]-4-carboxamide] | > 1000 | > 1000 | – | –
NC(=O)C1CCC2(CC1)Cc1nc(-c3ccc(F)cc3)c(-c3ccc4ncnn4c3)n1C2 (stereo not shown) [Compound 80, 3′-([1,2,4]triazolo[1,5-a]pyridin-6-yl)-2′-(4-fluorophenyl)-5′H,7′H-spiro[cyclohexane-1,6′-pyrrolo[1,2-a]imidazole]-4-carboxamide] | > 1000 | > 1000 | – | –
Fc1ccc(-c2nc3n(c2-c2ccc4ncnn4c2)CCC3)c(F)c1Cl [Compound 81, 6-(2-(3-chloro-2,4-difluorophenyl)-6,7-dihydro-5H-pyrrolo[1,2-a]imidazol-3-yl)-[1,2,4]triazolo[1,5-a]pyridine] | 100 to 1000 | 100 to 1000 | – | –
Fc1ccc(Cl)cc1-c1nc2n(c1-c1ccc3ncnn3c1)CCC2 [Compound 82, 6-(2-(5-chloro-2-fluoro)-6,7-dihydro-5H-pyrrolo[1,2-a]imidazol-3-yl)-[1,2,4]triazolo[1,5-a]pyridine] | – | – | < 50 | < 50
Fc1ccc(Cl)cc1-c1nc2n(c1-c1ccc3nccn3c1)CCC2 [Compound 83] | – | – | < 50 | < 50
CS(=O)(=O)OCC1CCC2(CC1)Cc1nc(-c3ccc(F)cc3)c(-c3ccc4ncnn4c3)n1C2 (stereo not shown) [Compound 84, (3′-([1,2,4]triazolo[1,5-a]pyridin-6-yl)-2′-(4-fluorophenyl)-5′H,7′H-spiro[cyclohexane-1,6′-pyrrolo[1,2-a]imidazol]-4-yl)methyl methanesulfonate] | – | – | > 1000 | > 1000
[N-]=[N+]=NCC1CCC2(CC1)Cc1nc(-c3ccc(F)cc3)c(-c3ccc4ncnn4c3)n1C2 (stereo not shown) [Compound 85, 3′-([1,2,4]triazolo[1,5-a]pyridin-6-yl)-4-(azidomethyl)-2′-(4-fluorophenyl)-5′H,7′H-spiro[cyclohexane-1,6′-pyrrolo[1,2-a]imidazole]] | – | – | > 1000 | > 1000
CNCC1CCC2(CC1)Cc1nc(-c3ccc(F)cc3)c(-c3ccc4ncnn4c3)n1C2 (stereo not shown) [Compound 86, 1-(3′-([1,2,4]triazolo[1,5-a]pyridin-6-yl)-2′-(4-fluorophenyl)-5′H,7′H-spiro[cyclohexane-1,6′-pyrrolo[1,2-a]imidazol]-4-yl)-N-methylmethanamine] | – | – | > 1000 | > 1000
CN(C)CC1CCC2(CC1)Cc1nc(-c3ccc(F)cc3)c(-c3ccc4ncnn4c3)n1C2 (stereo not shown) [Compound 87, 1-(3′-([1,2,4]triazolo[1,5-a]pyridin-6-yl)-2′-(4-fluorophenyl)-5′H,7′H-spiro[cyclohexane-1,6′-pyrrolo[1,2-a]imidazol]-4-yl)-N,N-dimethylmethanamine] | – | – | > 1000 | > 1000
O=C(OCc1ccccc1)N1CCC2Cn3c(nc(-c4ccc(F)cc4)c3-c3ccc4ncnn4c3)C2C1 (stereo not shown) [Compound 88, benzyl 3-([1,2,4]triazolo[1,5-a]pyridin-6-yl)-2-(4-fluorophenyl)-5,5a,6,7,9,9a-hexahydro-8H-imidazo[1′,2′:1,2]pyrrolo[3,4-c]pyridine-8-carboxylate] | – | – | > 1000 | > 1000
CN1CCC2Cn3c(nc(-c4ccc(F)cc4)c3-c3ccc4ncnn4c3)C2C1 (stereo not shown) [Compound 89, 3-([1,2,4]triazolo[1,5-a]pyridin-6-yl)-2-(4-fluorophenyl)-8-methyl-5a,6,7,8,9,9a-hexahydro-5H-imidazo[1′,2′:1,2]pyrrolo[3,4-c]pyridine] | – | – | > 1000 | > 1000
Cc1ccc(Cl)cc1-c1nc2n(c1-c1ccc3ncnn3c1)CCC2 [Compound 90, 6-(2-(5-chloro-2-methyl)-6,7-dihydro-5H-pyrrolo[1,2-a]imidazol-3-yl)-[1,2,4]triaolo[1,5-a]pyridine] | – | – | 100 to 1000 | 100 to 1000
Cc1ccc(-c2ccc3ncnn3c2)cc1-c1nc2n(c1-c1ccc3ncnn3c1)CCC2 [Compound 91, 6-(2-(5-([1,2,4]triazolo[1,5-a]pyridin-6-yl)-2-methylphenyl)-6,7-dihydro-5H-pyrrolo[1,2-a]imidazol-3-yl)-[1,2,4]triazolo[1,5-a]pyridine] | – | – | > 1000 | > 1000
Clc1ccc(Cl)c(-c2nc3n(c2-c2ccc4ncnn4c2)CCC3)c1 [Compound 92, 6-(2-(2,5-dichlorophenyl)-6,7-dihydro-5H-pyrrolo[1,2-a]imidazol-3-yl)-[1,2,4]triazolo[1,5-a]pyridine] | 50 to 100 | 100 to 1000 | – | –
Clc1ccc(Cl)c(-c2nc3n(c2-c2ccc4nccn4c2)CCC3)c1 [Compound 93, 6-(2-(2,5-dichlorophenyl)-6,7-dihydro-5H-pyrrolo[1,2-a]imidazol-3-yl)imidazo[1,2-a]pyridine] | < 50 | 50 to 100 | – | –
Fc1cc(F)c(-c2nc3n(c2-c2ccc4ncnn4c2)CCC3)cc1Cl [Compound 94, 6-(2-(5-chloro-2,4-difluoro)-6,7-dihydro-5H-pyrrolo[1,2-a]imidazol-3-yl)-[1,2,4]triazolo[1,5-a]pyridine] | – | – | < 50 | < 50
COc1ccc(-c2nc3n(c2-c2ccc4ncnn4c2)CCC3)cc1 [Compound 95, 6-(2-(4-methoxyphenyl)-6,7-dihydro-5H-pyrrolo[1,2-a]imidazol-3-yl)-[1,2,4]triazolo[1,5-a]pyridine] | > 1000 | > 1000 | – | –
Cc1ccc(F)c(-c2nc3n(c2-c2ccc4ncnn4c2)CCC3)c1 [Compound 96, 6-(2-(2-fluoro-5-methylphenyl)-6,7-dihydro-5H-pyrrolo[1,2-a]imidazol-3-yl)-[1,2,4]triazolo[1,5-a]pyridine] | – | – | < 50 | < 50
Fc1cc(F)c(F)c(-c2nc3n(c2-c2cc4cnccc4s2)CCC3)c1 [Compound 98, 2-(2-(2,3,5-trifluorophenyl)-6,7-dihydro-5H-pyrrolo[1,2-a]imidazol-3-yl)thieno[3,2-c]pyridine] | – | – | 100 to 1000 | 100 to 1000
Fc1cc(F)c(-c2nc3n(c2-c2cc4cnccc4s2)CCC3)cc1F [Compound 99, 2-(2-(2,4,5-trifluorophenyl)-6,7-dihydro-5H-pyrrolo[1,2-a]imidazol-3-yl)thieno[3,2-c]pyridine] | – | – | 50 to 100 | 100 to 1000
Fc1ccccc1-c1nc2n(c1-c1cc3cnccc3s1)CCC2 [Compound 100, 2-(2-(2-fluorophenyl)-6,7-dihydro-5H-pyrrolo[1,2-a]imidazol-3-yl)thieno[3,2-c]pyridine] | – | – | 100 to 1000 | > 1000
Fc1ccc(-c2nc3n(c2-c2cc4cnccc4s2)CCC3)cc1 [Compound 101, 2-(2-(4-fluorophenyl)-6,7-dihydro-5H-pyrrolo[1,2-a]imidazol-3-yl)thieno[3,2-c]pyridine] | – | – | 100 to 1000 | 100 to 1000
Fc1ccc(Cl)cc1-c1nc2n(c1-c1cc3cnccc3s1)CCC2 [Compound 102, 2-(2-(5-chloro-2-fluorophenyl)-6,7-dihydro-5H-pyrrolo[1,2-a]imidazol-3-yl)thieno[3,2-c]pyridine] | – | – | < 50 | 50 to 100
Fc1cc(F)c(-c2nc3n(c2-c2ccc4ncsc4c2)CCN3)cc1F [Compound 103, 6-(6-(2,4,5-trifluorophenyl)-2,3-dihydro-1H-imidazo[1,2-a]imidazol-5-yl)benzo[d]thiazole] | – | – | < 50 | < 50
CC(=O)N1CCn2c1nc(-c1cc(F)c(F)cc1F)c2-c1ccc2ncnn2c1 [Compound 104, 1-(5-([1,2,4]triazolo[1,5-a]pyridin-6-yl)-6-(2,4,5-trifluorophenyl)-2,3-dihydro-1H-imidazo[1,2-a]imidazol-1-yl)ethan-1-one] | – | – | > 1000 | > 1000
